Experiments:
[1] = system: luciferase expression in the liver; test: Luciferase mRNA in vivo evaluation: luciferase expression in the liver after tail vein injection of FLuc mRNA lipid nanoparticles; design: species or system mice; conditions: liver 4 hours after administration; for Liver Luc @ 0.3 mg/kg (ng luc/g liver): 0.3 mg mRNA/kg; for Liver Luc @ 1.0 mg/kg (ng luc/g liver): 1.0 mg mRNA/kg
Description: Cationic lipid, DSPC, cholesterol and PEG-lipid were solubilized in ethanol at a molar ratio of 50:10:38.5:1.5 or 47.5:10:40.8:1.7. Lipid nanoparticles (LNP) were prepared at a total lipid to mRNA weight ratio of approximately 10:1 to 30:1. Briefly, the mRNA was diluted to 0.2 mg/mL in 10 to 50 mM citrate buffer, pH 4. Syringe pumps were used to mix the ethanolic lipid solution with the mRNA aqueous solution at a ratio of about 1:5 to 1:3 (vol/vol) with total flow rates above 15 ml/min. The ethanol was then removed and the external buffer replaced with PBS by dialysis. Finally, the lipid nanoparticles were filtered through a 0.2 μm pore sterile filter. Lipid nanoparticle particle size was approximately 55-95 nm diameter, and in some instances approximately 70-90 nm diameter as determined by quasi-elastic light scattering using a Malvern Zetasizer Nano ZS (Malvern, UK).
Studies were performed in 6-8 week old female C57BL/6 mice (Charles River) 8-10 week old CD-1 (Harlan) mice (Charles River) according to guidelines established by an institutional animal care committee (ACC) and the Canadian Council on Animal Care (CCAC). Varying doses of mRNA-lipid nanoparticle were systemically administered by tail vein injection and animals euthanized at a specific time point (e.g 4 hrs) post-administration. Liver and spleen were collected in pre-weighed tubes, weights determined, immediately snap frozen in liquid nitrogen and stored at −80° C. until processing for analysis.
For liver, approximately 50 mg was dissected for analyses in a 2 mL FastPrep tubes (MP Biomedicals, Solon Ohio). ¼″ ceramic sphere (MP Biomedicals) was added to each tube and 500 μL of Glo Lysis Buffer—GLB (Promega, Madison Wis.) equilibrated to room temperature was added to liver tissue. Liver tissues were homogenized with the FastPrep24 instrument (MP Biomedicals) at 2×6.0 m/s for 15 seconds. Homogenate was incubated at room temperature for 5 minutes prior to a 1:4 dilution in GLB and assessed using SteadyGlo Luciferase assay system (Promega). Specifically, 50 μL of diluted tissue homogenate was reacted with 50 μL of SteadyGlo substrate, shaken for 10 seconds followed by 5 minute incubation and then quantitated using a CentroXS^3 LB 960 luminometer (Berthold Technologies, Germany). The amount of protein assayed was determined by using the BCA protein assay kit (Pierce, Rockford Ill.). Relative luminescence units (RLU) were then normalized to total ug protein assayed. To convert RLU to ng luciferase a standard curve was generated with QuantiLum Recombinant Luciferase (Promega). Based in the data provided in FIG. 1, the four-hour time point was chosen for efficacy evaluation of the lipid formulations.
The FLuc mRNA (L-6107) from Trilink Biotechnologies will express a luciferase protein, originally isolated from the firefly, Photinus pyralis. FLuc is commonly used in mammalian cell culture to measure both gene expression and cell viability. It emits bioluminescence in the presence of the substrate, luciferin. This capped and polyadenylated mRNA is fully substituted with 5-methylcytidine and pseudouridine.
The cationic lipids shown in Table 2 have previously been tested with nucleic acids. For comparative purposes, these lipids were also used to formulate lipid nanoparticles containing the FLuc mRNA (L-6107) using an in line mixing method, as described in Example 1 and in PCT/US10/22614, which is hereby incorporated by reference in its entirety. […]

[2] = Determination of pKa of formulated lipids in lipid nanoparticles (TNS fluorescence assay); assay type: physicochemical; conditions: pKa of cationic lipid in LNP (cationic lipid/DSPC/cholesterol/PEG-lipid 50/10/38.5/1.5 mol %), pH of half-maximal intensity
Description: As described elsewhere, the pKa of formulated cationic lipids is correlated with the effectiveness of LNPs for delivery of nucleic acids (see Jayaraman et al, Angewandte Chemie, International Edition (2012), 51(34), 8529-8533; Semple et al, Nature Biotechnology 28, 172-176 (2010)). The preferred range of pKa is ˜5 to ˜7. […] Lipid nanoparticles comprising of cationic lipid/DSPC/cholesterol/PEG-lipid (50/10/38.5/1.5 mol %) in PBS at a concentration of 0.4 mM total lipid are prepared using the in-line process as described in Example 1. TNS was prepared as a 100 μM stock solution in distilled water. Vesicles were diluted to 24 μM lipid in 2 mL of buffered solutions containing, 10 mM HEPES, 10 mM MES, 10 mM ammonium acetate, 130 mM NaCl, where the pH ranged from 2.5 to 11. An aliquot of the TNS solution was added to give a final concentration of 1 μM and following vortex mixing fluorescence intensity was measured at room temperature in a SLM Aminco Series 2 Luminescence Spectrophotometer using excitation and emission wavelengths of 321 nm and 445 nm. A sigmoidal best fit analysis was applied to the fluorescence data and the pKa was measured as the pH giving rise to half-maximal fluorescence intensity (see FIG. 2).

[3] = Lipid Ratio A: 50% cationic lipid/10% DSPC/38.5% cholesterol/1.5% PEG lipid (PEG-DMA)
[4] = Lipid Ratio B: 47.5% cationic lipid/10% DSPC/40.8% cholesterol/1.7% PEG lipid

Row | SMILES | Liver Luc @ 0.3 mg/kg (ng luc/g liver) [1, 3] [ng luc/g liver] | Liver Luc @ 1.0 mg/kg (ng luc/g liver) [1, 3] [ng luc/g liver] | pKa [2] | Liver Luc @ 0.3 mg/kg (ng luc/g liver) [1, 4] [ng luc/g liver] | Liver Luc @ 1.0 mg/kg (ng luc/g liver) [1, 4] [ng luc/g liver]
1 | CCCCCCCCC(CCCCCC)C(=O)OCCCCCCN(CCO)CCCCCCOC(=O)C(CCCCCC)CCCCCCCC (stereo not drawn) [Compound 1] | 467 ± 72 | 3780 ± 210 | 5.89 |  | 
2 | CCCCCCCCC(CCCCCC)C(=O)OCCCCCCN(CCCO)CCCCCCOC(=O)C(CCCCCC)CCCCCCCC (stereo not drawn) [Compound 2] | 1195 ± 245 | 10059 ± 3833 | 6.05 |  | 
3 | CCCCCCCCC(CCCCCC)C(=O)OCCCCCCN(CCCCO)CCCCCCOC(=O)C(CCCCCC)CCCCCCCC (stereo not drawn) [Compound 3] | 1275 ± 410 | 10643 ± 1858 | 6.09 |  | 
4 | CCCCCCCCC(CCCCCC)C(=O)OCCCCN(CCCCO)CCCCOC(=O)C(CCCCCC)CCCCCCCC (stereo not drawn) [Compound 4] | 378 ± 82 | 1952 ± 940 | 5.6 |  | 
5 | CCCCCCCCC(CCCCCC)C(=O)OCCCCN(CCCO)CCCCOC(=O)C(CCCCCC)CCCCCCCC (stereo not drawn) [Compound 5] | 183 ± 45 | 713 ± 298 | 5.59 |  | 
6 | CCCCCCCCC(CCCCCC)C(=O)OCCCCN(CCO)CCCCOC(=O)C(CCCCCC)CCCCCCCC (stereo not drawn) [Compound 6] | 122 ± 49 | 520 ± 365 | 5.42 |  | 
7 | CCCCCCCCC(CCCCCC)C(=O)OCCCCCCN(CCCCCO)CCCCCCOC(=O)C(CCCCCC)CCCCCCCC (stereo not drawn) [Compound 7] | 1158 ± 136 | 8406 ± 2335 | 6.11 |  | 
8 | CCCCCCCCC(CCCCCC)C(=O)OCCCCCCN(CCCCCCO)CCCCCCOC(=O)C(CCCCCC)CCCCCCCC (stereo not drawn) [Compound 8] | 1467 ± 943 | 7230 ± 2290 | 5.84 |  | 
9 | CCCCCCCCC(CCCCCC)COC(=O)CCCCN(CCCCO)CCCCC(=O)OCC(CCCCCC)CCCCCCCC (stereo not drawn) [Compound 15] | 247 ± 25 | 1633 ± 449 | 6.14 |  | 
10 | CCCCCCCCC(CCCCCC)COC(=O)CCCCCN(CCCO)CCCCCC(=O)OCC(CCCCCC)CCCCCCCC (stereo not drawn) [Compound 16] | 344 ± 133 | 2633 ± 1140 | 6.31 |  | 
11 | CCCCCCCCC(CCCCCC)COC(=O)CCCCCN(CCCCO)CCCCCC(=O)OCC(CCCCCC)CCCCCCCC (stereo not drawn) [Compound 17] | 275 ± 139 | 1554 ± 761 | 6.28 |  | 
12 | CCCCCCCCC(CCCCCC)COC(=O)CCCCCCCN(CCCCO)CCCCCCCC(=O)OCC(CCCCCC)CCCCCCCC (stereo not drawn) [Compound 20] |  |  | 6.36 | 691 ± 150 | 4279 ± 2226
13 | CCCCCCCCC(CCCCCC)C(=O)OCCCCCCCCCN(CCCCO)CCCCCCCCCOC(=O)C(CCCCCC)CCCCCCCC (stereo not drawn) [Compound 22] | 660 ± 184 | 7533 ± 4499 | 6.1 |  | 
14 | CCCCCCCCC(CCCCCC)C(=O)OCCCCCCCCCCCCN(CCCCO)CCCCCCCCCCCCOC(=O)C(CCCCCC)CCCCCCCC (stereo not drawn) [Compound 23] | 137 ± 51 | 487 ± 209 | 5.98 |  | 
15 | CCCCCCC(CCCC)C(=O)OCCCCCCCCCN(CCCCO)CCCCCCCCCOC(=O)C(CCCC)CCCCCC (stereo not drawn) [Compound 25] | 1648 ± 534 | 13880 ± 5083 | 6.22 |  | 
16 | CCCCCCCCCCC(CCCCCCCC)C(=O)OCCCCCCN(CCCCO)CCCCCCOC(=O)C(CCCCCCCC)CCCCCCCCCC (stereo not drawn) [Compound 26] | 1143 ± 782 | 1238 ± 1686 | 5.84 |  | 
17 | CCCCCCCCCCCCC(CCCCCCCCCC)C(=O)OCCCCCCN(CCCCO)CCCCCCOC(=O)C(CCCCCCCCCC)CCCCCCCCCCCC (stereo not drawn) [Compound 27] | 110 ± 42 | 1088 ± 802 | 5.77 |  | 
18 | CCCCCCCCC(CCCCCC)C(=O)OCCCCCCN(CCCCCCOC(=O)C(CCCCCC)CCCCCCCC)CC(O)CO (stereo not drawn) [Compound 30] | 49 ± 17 | 237 ± 92 | 6.09 |  | 
19 | CCCCCCCCCCC(CCCCCCCC)C(=O)OCCCCCCN(CCCO)CCCCCCOC(=O)C(CCCCCCCC)CCCCCCCCCC (stereo not drawn) [Compound 37] | 1244 ± 907 | 2035 ± 498 | 5.89 |  | 
20 | CCCCCCCCC(CCCCCC)C(=O)OCCCCCCCCCCCCN(CCCO)CCCCCCCCCCCCOC(=O)C(CCCCCC)CCCCCCCC (stereo not drawn) [Compound 38] | 60 ± 5 | 365 ± 181 | 6.1 |  | 
21 | CCCCCCCCCCCCC(CCCCCCCCCC)C(=O)OCCCCCCN(CCCO)CCCCCCOC(=O)C(CCCCCCCCCC)CCCCCCCCCCCC (stereo not drawn) [Compound 44] |  |  | 5.79 | 23 ± 11 | 342 ± 229
22 | CCCCCCC(CCCC)C(=O)OCCCCCCCCCN(CCCO)CCCCCCCCCOC(=O)C(CCCC)CCCCCC (stereo not drawn) [Compound 45] |  |  | 6.25 | 1026 ± 199 | 8806 ± 2836
23 | CCCCCCCCC(CCCCCC)COC(=O)CCCCCCCN(CCO)CCCCCCCC(=O)OCC(CCCCCC)CCCCCCCC (stereo not drawn) [Compound 46] |  |  | 6.06 | 4 ± 2 | 5 ± 3
